Tested on: Jurkat cell
Experiment: Cytotoxicity experiment (LDH analysis) on Jurkat cells exposed to Triton X-100
Type: cell-based
Settings: Jurkat cell exposed to Triton X-100 (0 to 0.1%) for 30 min in CO2 incubator; LDH in separated culture medium, absorbance at 490 nm
Protocol: After the cell treated using Triton X-100 according to the Example of the present invention was separated using the apparatus for separating the microparticles, the apparatus fastened to the 1 mL syringe, and the conventional centrifuge, the cytotoxicity (%) was measured from the collected cell culture medium.
Specifically, a Jurkat cell was cultured in RPMI (WELGENE Inc., Korea) suspended using a 10% FBS (WELGENE) and a 1% antibiotic solution containing penicillin and streptomycin (WELGENE). In order to visualize the flow of the cell, the cell was washed with DPBS (WELGENE) and then dyed using a 10 μM CFDA cell tracer (Invitrogen) at room temperature for 15 min. After the dyeing, the cell was washed twice with DPBS.
The Jurkat cell was exposed to Triton X-100 at various concentrations (0 to 0.1%) in a CO2 incubator for 30 min. Subsequently, the fluid from which the microparticles were separated was obtained using the apparatus for separating the microparticles, to which the syringe was fastened, according to the present invention (manual injection at room temperature for 3 min), and the centrifuge (at 1000 rpm and room temperature for 5 min). […] The lactate dehydrogenase (LDH) analysis was performed in accordance with the manufacturer's directions (#88953, Pierce, Rockford, Ill.), and the absorbance was then measured at 490 nm. […]

Triton X-100
IC50 value of Triton X-100 (cytotoxicity, LDH analysis): 0.0076%

— patent US10722886B2, “Apparatus for separating fine particles and separating method using same” (UNIVERSITY-INDUSTRY COOPERATION GROUP OF KYUNG HEE …, priority 2014, dated 2020)
